In ChEMBL document CHEMBL1909046, “DrugMatrix in vitro pharmacology data”:

What was measured:
Cannabinoid receptor 1 = Cannabinoid receptor 1 (Homo sapiens, UniProt P21554); format: cell membranes, Membrane; details: chem-1; note: in other assays of this panel Not Active means under 50% inhibition at 10 µM
Cytochrome P450 2E1 = Cytochrome P450 2E1 (Homo sapiens, UniProt P05181); details: bti-tn-5b1-4; note: in other assays of this panel Not Active means under 50% inhibition at 10 µM
[1] = molecular target: T1, Cholecystokinin receptor type A (Homo sapiens, UniProt P32238); format: cell membranes, Membrane; details: 1321-n1; note: in other assays of this panel Not Active means under 50% inhibition at 10 µM
T1 sequence (P32238 whole entry): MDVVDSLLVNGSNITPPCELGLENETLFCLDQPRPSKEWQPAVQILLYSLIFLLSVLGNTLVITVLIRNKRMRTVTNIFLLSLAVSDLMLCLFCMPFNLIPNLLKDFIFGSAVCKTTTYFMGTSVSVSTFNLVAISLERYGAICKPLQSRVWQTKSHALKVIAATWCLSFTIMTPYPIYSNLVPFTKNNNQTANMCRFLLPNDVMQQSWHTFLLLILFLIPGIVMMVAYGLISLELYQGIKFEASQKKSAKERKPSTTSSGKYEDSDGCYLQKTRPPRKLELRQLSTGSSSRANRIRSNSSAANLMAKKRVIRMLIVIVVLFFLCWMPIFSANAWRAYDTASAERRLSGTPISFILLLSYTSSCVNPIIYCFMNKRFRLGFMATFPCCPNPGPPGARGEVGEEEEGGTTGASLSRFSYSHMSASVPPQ

[2] = molecular target: cGMP-specific 3',5'-cyclic phosphodiesterase (Homo sapiens, UniProt O76074); assay: DRUGMATRIX: Phosphodiesterase PDE5 enzyme inhibition (substrate: [3H]cGMP + cGMP); format: tissue-based; details: platelet; Not Active = under 50% inhibition at 10 µM
[3] = molecular target: Kappa-type opioid receptor (Homo sapiens, UniProt P41145); assay: DRUGMATRIX: Opiate kappa (OP2, KOP) radioligand binding (ligand: [3H] Diprenorphine); format: cell membranes, HEK293, Membrane; details: hek293; Not Active = under 50% inhibition at 10 µM
[4] = DRUGMATRIX: Nicotinic Acetylcholine radioligand binding (ligand: [125I] Epibatidine); format: cell membranes, Membrane; details: imr-32; Not Active = under 50% inhibition at 10 µM
[5] = molecular target: T2, Vasoactive intestinal polypeptide receptor 1 (Homo sapiens, UniProt P32241); format: cell membranes, Membrane; details: ht-29; note: in other assays of this panel Not Active means under 50% inhibition at 10 µM
T2 sequence (P32241 whole entry): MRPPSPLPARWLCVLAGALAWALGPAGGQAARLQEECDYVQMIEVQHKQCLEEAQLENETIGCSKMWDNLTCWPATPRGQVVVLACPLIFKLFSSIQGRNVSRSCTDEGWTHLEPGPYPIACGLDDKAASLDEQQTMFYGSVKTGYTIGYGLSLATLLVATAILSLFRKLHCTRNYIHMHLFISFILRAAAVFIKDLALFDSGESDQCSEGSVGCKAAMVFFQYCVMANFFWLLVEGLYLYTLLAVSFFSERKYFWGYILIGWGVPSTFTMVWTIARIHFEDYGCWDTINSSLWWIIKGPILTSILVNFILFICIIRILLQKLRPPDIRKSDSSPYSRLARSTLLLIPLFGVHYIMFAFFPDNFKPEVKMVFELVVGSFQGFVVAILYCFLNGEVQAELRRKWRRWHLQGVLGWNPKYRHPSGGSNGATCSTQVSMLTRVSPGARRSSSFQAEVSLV

[6] = DRUGMATRIX: Phosphodiesterase PDE3 enzyme inhibition (substrate: [3H]cAMP + cAMP); format: tissue-based, Homo sapiens; details: platelet; Not Active = under 50% inhibition at 10 µM
Histamine H2 receptor = Histamine H2 receptor (Homo sapiens, UniProt P25021); format: cell membranes, CHO-K1, Membrane; details: cho-k1; note: in other assays of this panel Not Active means under 50% inhibition at 10 µM
Histamine H2 receptor, sequence (P25021 whole entry): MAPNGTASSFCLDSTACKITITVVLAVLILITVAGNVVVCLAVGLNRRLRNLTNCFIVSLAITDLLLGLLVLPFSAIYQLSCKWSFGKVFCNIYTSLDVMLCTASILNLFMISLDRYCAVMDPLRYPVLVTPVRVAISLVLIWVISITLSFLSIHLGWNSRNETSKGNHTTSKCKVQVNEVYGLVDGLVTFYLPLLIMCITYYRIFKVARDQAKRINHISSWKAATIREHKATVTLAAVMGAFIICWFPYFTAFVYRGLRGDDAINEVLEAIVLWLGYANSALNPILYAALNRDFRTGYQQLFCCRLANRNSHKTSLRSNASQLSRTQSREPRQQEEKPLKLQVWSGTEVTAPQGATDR

Cannabinoid receptor 1, sequence (P21554 whole entry): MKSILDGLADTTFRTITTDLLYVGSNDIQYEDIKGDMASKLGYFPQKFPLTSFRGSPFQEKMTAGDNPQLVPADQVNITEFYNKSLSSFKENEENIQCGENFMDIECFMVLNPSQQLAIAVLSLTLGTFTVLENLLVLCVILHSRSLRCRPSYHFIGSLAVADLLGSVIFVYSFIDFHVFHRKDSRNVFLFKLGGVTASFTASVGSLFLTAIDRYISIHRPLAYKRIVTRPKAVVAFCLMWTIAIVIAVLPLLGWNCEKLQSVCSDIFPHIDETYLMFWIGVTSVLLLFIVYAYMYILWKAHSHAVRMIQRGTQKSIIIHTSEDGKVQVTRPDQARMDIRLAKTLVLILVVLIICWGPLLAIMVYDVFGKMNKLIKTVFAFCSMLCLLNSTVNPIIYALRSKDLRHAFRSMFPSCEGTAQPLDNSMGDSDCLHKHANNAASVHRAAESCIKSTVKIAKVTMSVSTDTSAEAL
Kappa-type opioid receptor, sequence (P41145 whole entry): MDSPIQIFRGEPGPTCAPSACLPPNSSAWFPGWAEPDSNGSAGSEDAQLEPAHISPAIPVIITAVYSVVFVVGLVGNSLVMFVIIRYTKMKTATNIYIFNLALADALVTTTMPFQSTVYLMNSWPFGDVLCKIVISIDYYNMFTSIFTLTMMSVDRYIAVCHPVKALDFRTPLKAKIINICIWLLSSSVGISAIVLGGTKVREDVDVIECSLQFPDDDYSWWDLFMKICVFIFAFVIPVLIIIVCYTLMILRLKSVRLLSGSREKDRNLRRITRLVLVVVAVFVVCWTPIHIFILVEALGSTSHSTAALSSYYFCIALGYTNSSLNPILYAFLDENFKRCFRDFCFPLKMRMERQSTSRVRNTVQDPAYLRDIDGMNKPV
Cytochrome P450 2E1, sequence (P05181 whole entry): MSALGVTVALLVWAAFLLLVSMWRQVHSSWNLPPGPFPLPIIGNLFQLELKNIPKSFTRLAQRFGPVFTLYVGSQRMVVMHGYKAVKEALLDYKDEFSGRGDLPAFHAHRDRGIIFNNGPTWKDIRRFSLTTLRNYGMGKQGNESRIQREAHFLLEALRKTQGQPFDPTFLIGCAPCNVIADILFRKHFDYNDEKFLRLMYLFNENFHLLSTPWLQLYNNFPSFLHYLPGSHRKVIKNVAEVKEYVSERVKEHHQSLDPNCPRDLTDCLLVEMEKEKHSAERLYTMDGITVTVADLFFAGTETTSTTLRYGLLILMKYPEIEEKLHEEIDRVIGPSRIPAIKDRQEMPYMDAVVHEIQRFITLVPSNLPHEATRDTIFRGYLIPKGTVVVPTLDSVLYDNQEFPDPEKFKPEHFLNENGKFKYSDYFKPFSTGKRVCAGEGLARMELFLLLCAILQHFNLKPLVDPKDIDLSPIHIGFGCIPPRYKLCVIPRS

COC(=O)c1ccccc1O [METHYL SALICYLATE]
Not Active: IC50 (Cannabinoid receptor 1) | IC50 (Cytochrome P450 2E1) | Ki (Cytochrome P450 2E1) | IC50 [1] | IC50 [2] | IC50 [3] | IC50 [4] | Ki [4] | IC50 [5] | IC50 [6] | Ki [6] | IC50 (Histamine H2 receptor)

COc1ccc2cc(CCC(C)=O)ccc2c1 [NABUMETONE]
Not Active: IC50 (Cannabinoid receptor 1) | IC50 (Cytochrome P450 2E1) | Ki (Cytochrome P450 2E1) | IC50 [1] | IC50 [2] | IC50 [3] | IC50 [4] | Ki [4] | IC50 [5] | IC50 [6] | Ki [6] | IC50 (Histamine H2 receptor)

O=C(O)c1cccnc1 [NIACIN]
Not Active: IC50 (Cannabinoid receptor 1) | IC50 (Cytochrome P450 2E1) | Ki (Cytochrome P450 2E1) | IC50 [1] | IC50 [2] | IC50 [3] | IC50 [4] | Ki [4] | IC50 [5] | IC50 [6] | Ki [6] | IC50 (Histamine H2 receptor)

CNC(=C[N+](=O)[O-])NCCSCc1csc(CN(C)C)n1 [NIZATIDINE]
Not Active: IC50 (Cannabinoid receptor 1) | IC50 (Cytochrome P450 2E1) | Ki (Cytochrome P450 2E1) | IC50 [1] | IC50 [2] | IC50 [3] | IC50 [4] | Ki [4] | IC50 [5] | IC50 [6] | Ki [6] | IC50 (Histamine H2 receptor)

C[C@]12C/C(=C/O)C(=O)C[C@@H]1CC[C@@H]1[C@@H]2CC[C@@]2(C)[C@H]1CC[C@]2(C)O [OXYMETHOLONE]
Not Active: IC50 (Cannabinoid receptor 1) | IC50 (Cytochrome P450 2E1) | Ki (Cytochrome P450 2E1) | IC50 [1] | IC50 [2] | IC50 [3] | IC50 [4] | Ki [4] | IC50 [5] | IC50 [6] | Ki [6] | IC50 (Histamine H2 receptor)

CC(C)(CO)C(O)C(=O)NCCCO (configuration not stated) [PANTHENOL]
Not Active: IC50 (Cannabinoid receptor 1) | IC50 (Cytochrome P450 2E1) | Ki (Cytochrome P450 2E1) | IC50 [1] | IC50 [2] | IC50 [3] | IC50 [4] | Ki [4] | IC50 [5] | IC50 [6] | Ki [6] | IC50 (Histamine H2 receptor)

OCCN1CCN(CCCN2c3ccccc3Sc3ccc(Cl)cc32)CC1 [PERPHENAZINE]
Not Active: IC50 (Cannabinoid receptor 1) | IC50 (Cytochrome P450 2E1) | Ki (Cytochrome P450 2E1) | IC50 [1] | IC50 [2] | IC50 [3] | IC50 [4] | Ki [4] | IC50 [5] | IC50 [6] | Ki [6] | IC50 (Histamine H2 receptor)

CCCCC1C(=O)N(c2ccccc2)N(c2ccccc2)C1=O [PHENYLBUTAZONE]
Not Active: IC50 (Cannabinoid receptor 1) | IC50 (Cytochrome P450 2E1) | Ki (Cytochrome P450 2E1) | IC50 [1] | IC50 [2] | IC50 [3] | IC50 [4] | Ki [4] | IC50 [5] | IC50 [6] | Ki [6] | IC50 (Histamine H2 receptor)

Cc1cccc(Nc2cc(Cl)nc(SCC(=O)O)n2)c1C [PIRINIXIC ACID]
Not Active: IC50 (Cannabinoid receptor 1) | IC50 (Cytochrome P450 2E1) | Ki (Cytochrome P450 2E1) | IC50 [1] | IC50 [2] | IC50 [3] | IC50 [4] | Ki [4] | IC50 [5] | IC50 [6] | Ki [6] | IC50 (Histamine H2 receptor)

CC[C@H](C)C(=O)O[C@H]1C[C@H](O)C=C2C=C[C@H](C)[C@H](CC[C@@H](O)C[C@@H](O)CC(=O)O)[C@H]21 [PRAVASTATIN]
Not Active: IC50 (Cannabinoid receptor 1) | IC50 (Cytochrome P450 2E1) | Ki (Cytochrome P450 2E1) | IC50 [1] | IC50 [2] | IC50 [3] | IC50 [4] | Ki [4] | IC50 [5] | IC50 [6] | Ki [6] | IC50 (Histamine H2 receptor)

CC(C)(Sc1cc(C(C)(C)C)c(O)c(C(C)(C)C)c1)Sc1cc(C(C)(C)C)c(O)c(C(C)(C)C)c1 [PROBUCOL]
Not Active: IC50 (Cannabinoid receptor 1) | IC50 (Cytochrome P450 2E1) | Ki (Cytochrome P450 2E1) | IC50 [1] | IC50 [2] | IC50 [3] | IC50 [4] | Ki [4] | IC50 [5] | IC50 [6] | Ki [6] | IC50 (Histamine H2 receptor)
